From patent US7527935B2, “G-protein coupled receptor having eicosanoid as ligand and gene thereof” (Mitsubishi Tanabe Pharma Corporation, priority 2002, dated 2009)

Columns and labels:
[1] = target: T1, fusion protein of TG1019 protein and Giα1 (351Cys→Ile) (Homo sapiens, UniProt P63096+Q8TDS5, C351I/D111G/K206E/T295A); assay: [35S]GTPγS binding to membrane fraction containing TG1019-Giα1 (351Cys→Ile) fusion protein (ligand identification); type: biochemical; conditions: membrane fraction with TG1019-Giα1 (351Cys→Ile) fusion protein
T1 construct: made in house; host or cells: Sf9 insect cells (baculovirus, pVL1392), membrane fraction
T1 sequence (Q8TDS5+P63096 fused Q8TDS5:D111G/Q8TDS5:K206E/Q8TDS5:T295A/P63096:C351I): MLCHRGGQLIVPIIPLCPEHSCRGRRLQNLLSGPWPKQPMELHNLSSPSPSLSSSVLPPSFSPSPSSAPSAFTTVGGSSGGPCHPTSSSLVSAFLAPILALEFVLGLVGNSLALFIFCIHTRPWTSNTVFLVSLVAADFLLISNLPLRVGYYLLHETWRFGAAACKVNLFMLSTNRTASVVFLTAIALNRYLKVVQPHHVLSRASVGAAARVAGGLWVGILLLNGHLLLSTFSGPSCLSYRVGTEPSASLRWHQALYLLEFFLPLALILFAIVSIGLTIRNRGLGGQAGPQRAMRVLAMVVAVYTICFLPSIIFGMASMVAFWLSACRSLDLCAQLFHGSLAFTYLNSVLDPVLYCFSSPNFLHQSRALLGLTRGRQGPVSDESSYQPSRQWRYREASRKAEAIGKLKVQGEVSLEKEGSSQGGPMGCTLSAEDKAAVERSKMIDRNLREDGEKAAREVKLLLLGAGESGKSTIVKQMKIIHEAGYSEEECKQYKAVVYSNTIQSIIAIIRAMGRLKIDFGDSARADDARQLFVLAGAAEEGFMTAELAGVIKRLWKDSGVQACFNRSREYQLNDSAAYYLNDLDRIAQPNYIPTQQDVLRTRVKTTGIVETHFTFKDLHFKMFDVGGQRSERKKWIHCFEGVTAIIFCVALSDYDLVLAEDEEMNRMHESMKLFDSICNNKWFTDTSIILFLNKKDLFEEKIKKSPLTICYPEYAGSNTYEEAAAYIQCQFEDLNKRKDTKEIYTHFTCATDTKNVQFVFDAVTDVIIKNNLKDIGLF
From the text: (§1) As stated in Example 1, it is concluded that TG1019 protein is a G-protein coupled receptor. Therefore, using a membrane fraction containing fused protein of TG1019 and G-protein, a ligand is identified as follows, according to a method for detecting a ligand-dependent binding with GTPγS (guanosine 5′-O-(3-thiotriphosphate)) [Wenzel-Seifert, et al., Mol. Pharmacom., Vol. 58, pp. 954-966, 2000; Bahia, et al., Biochemistry, Vol. 37, pp. 11555-11562, 1998].
Sf9 cells were inoculated onto a 10 cm Petri dish coated with collagen to about 70% confluence, and added thereto were Virus solution III (100 μl) obtained above and 12 ml of a culture medium, and the mixture was cultured at 27° C. for 4 days. The obtained cells were washed with a cooled PBS (Phosphate buffered saline, pH 7.4), and suspended in 3.6 ml of a cooled solution buffer [20 mM Tris-HCl, pH 7.5, 1 mM EDTA, 0.2 mM phenylmethylsulfonyl fluoride, 10 μg/ml pepstatin, 10 μg/ml leupeptin, and 2 μg/ml aprotinin], and the cells were homogenized by means of a Teflon homogenizer. This cell homogenate was centrifuged (600×g, 10 minutes), and the resultant supernatant was further centrifuged (50,000×g, 20 minutes). The obtained sediments were suspended in 450 μl of a cooled reaction buffer [20 mM Tris-HCl, pH 7.5, 50 mM sodium chloride, 10 mM magnesium chloride] by means of a Teflon homogenizer, to prepare a membrane fraction containing a fusion protein.
The membrane fraction (450 μl) obtained above (2) was suspended in a reaction buffer (7.54 ml), and added thereto was GDP (10 mM, 10 μl). To 160 μl of this solution was added 20 μl of a test compound. After incubating the mixture at 30° C. for 10 minutes, 20 μl of [^35S] GTPγS (5 nM, 5 nCi/μl: available from Amersham Pharmacia Biotech) was added to start reaction. After incubating the mixture at 30° C. for one hour, the reaction was terminated by filtration through a glass filter (UniFilter-96GF/B, available from Packard). The filter was washed with 200 μl of a cooled reaction buffer for 3 times, and an amount of the [^35S] GTPγS (a binding amount to the membrane fraction) on the filter was measured by liquid scintillation counting. From the thus measured [^35S] GTPγS binding amount was subtracted a nonspecific binding amount (a binding amount measured in the presence of 10 μM GTPγS), to obtain a specific binding amount of [^35S ] GTPγS.

[2] = target: T2, fusion protein of TG1019 protein and Gqα (Homo sapiens, UniProt Q8TDS5, D111G/K206E/T295A); assay: [35S]GTPγS binding to membrane fraction containing TG1019-Gqα fusion protein; type: biochemical; conditions: membrane fraction with TG1019-Gqα fusion protein; increase small compared to Giα
T2 construct: made in house; host or cells: Sf9 insect cells (baculovirus, pVL1392), membrane fraction
T2 sequence (Q8TDS5 with tags, fused parts or gaps D111G/K206E/T295A): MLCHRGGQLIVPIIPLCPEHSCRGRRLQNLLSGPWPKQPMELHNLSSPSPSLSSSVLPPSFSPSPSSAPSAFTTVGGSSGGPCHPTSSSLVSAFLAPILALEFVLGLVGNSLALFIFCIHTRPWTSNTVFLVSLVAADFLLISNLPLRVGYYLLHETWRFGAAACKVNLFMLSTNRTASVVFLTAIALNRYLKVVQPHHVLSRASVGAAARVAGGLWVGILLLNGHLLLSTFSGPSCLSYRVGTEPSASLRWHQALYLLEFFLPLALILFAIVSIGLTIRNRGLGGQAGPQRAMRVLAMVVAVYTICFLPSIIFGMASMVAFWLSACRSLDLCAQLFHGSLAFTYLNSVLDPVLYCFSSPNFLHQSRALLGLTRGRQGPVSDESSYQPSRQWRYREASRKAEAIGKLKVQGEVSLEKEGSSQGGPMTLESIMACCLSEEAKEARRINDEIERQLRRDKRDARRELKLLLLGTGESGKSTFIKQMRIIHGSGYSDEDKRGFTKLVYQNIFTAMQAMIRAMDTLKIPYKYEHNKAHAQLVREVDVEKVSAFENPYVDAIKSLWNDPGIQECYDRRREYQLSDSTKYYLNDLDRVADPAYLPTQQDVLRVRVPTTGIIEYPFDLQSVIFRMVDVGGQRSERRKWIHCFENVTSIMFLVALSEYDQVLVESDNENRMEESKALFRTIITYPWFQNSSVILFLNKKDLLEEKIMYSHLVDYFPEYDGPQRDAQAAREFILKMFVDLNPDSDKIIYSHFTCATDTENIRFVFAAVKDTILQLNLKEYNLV
From the text: as §1
Sf9 cells were inoculated onto a 10 cm Petri dish coated with collagen to about 70% confluence, and added thereto were Virus solution III (100 μl) obtained above and 12 ml of a culture medium, and the mixture was cultured at 27° C. for 4 days. […]
The membrane fraction (450 μl) obtained above (2) was suspended in a reaction buffer (7.54 ml), and added thereto was GDP (10 mM, 10 μl). […] GTPγS (a binding amount to the membrane fraction) on the filter was measured by liquid scintillation counting. From the thus measured [^35S] GTPγS binding amount was subtracted a nonspecific binding amount (a binding amount measured in the presence of 10 μM GTPγS), to obtain a specific binding amount of [^35S ] […]

TG1019 protein = assay: Forskolin-stimulated cAMP production in CHO cells transiently expressing TG1019; type: cell-based, human
From the text: A TG1019 protein expression vector was transiently introduced to CHO cells to have a recombinant TG1019 protein expressed, and using these cells, a function of TG1019 protein as an eicosanoid receptor was confirmed.
At first, a DNA encoding an entire region of TG1019 protein obtained in Example 1 (1) mentioned above was subcloned in NotI recognition site of a vector plasmid pcDNA3.1 (an expression vector, available from Invitrogen), to obtain TG1019 protein expression vector plasmid pcDNA3.1-TG1019.
CHO cells (1×10^6 cells) were cultured in DMEM/F-12 culture medium supplemented with 10% fetal bovine serum at 37° C. for 20 hours. Using these cells, transfection was carried out by adding plasmid DNA (pcDNA3.1-TG1019, or as a control, vector pcDNA3.1) (5 μg) and transfection reagent (LipofectAMINE, available from Invitrogen), and the mixture was cultured for 24 hours. In case of using pretreatment with pertussis toxin, pertussis toxin (100 ng) was added after 20 hours of culture and the mixture was successively cultured for 4 hours.
The cells after culture were collected, washed, and suspended in a KRH buffer (Krebs-Ringer Hepes buffer, pH 7.4) containing rolipram (25 mM). The suspension was incubated at 37° C. for 30 minutes and inoculated in a 96 well plate (5-7.5×10^4 cells/90 μl/well).
Subsequently, KRH buffer (90 μl/well) containing forskolin (1 μM) and 5-oxo-ETE (the final concentration 0M or 10^−11 to 10^−5 M) was added thereto, and after the mixture was incubated at room temperature for 10 minutes, the cells were lysed to measure a cAMP production amount.
The cAMP production amount was measured using cAMP enzyme immunoassay system available from Amersham Biosciences.

[3] = test system: PC3 human prostate cancer cells; assay: Apoptosis analysis (annexin V / PI flow cytometry) in PC3 cells; type: cell-based; conditions: 20 μl of 100 μM 5-oxo-ETE added together with DHA, 2 hours
Description: PC3 human prostate cancer cells, which had been cultured in RPMI1640 culture medium supplemented with 10% fetal bovine serum were dissociated by trypsin-EDTA solution (GibcoBRL), and suspended in RPMI1640 culture medium supplemented with 0.5% fetal bovine serum. The cells were plated onto a 6 cm Petri dish to 2×10^5 cells/dish, and cultured at 37° C. for 18 hours in a CO2 incubator. The supernatant was removed and 1980 μl of the same medium was added, and 20 μl of 1 mM DHA was further added thereto, and the mixture was cultured at 37° C. for 2 hours in a CO2 incubator.
In addition, as a test in the presence of 5-oxo-ETE, 1960 μl of RPMI1640 culture medium supplemented with 0.5% fetal bovine serum was added, and 20 μl of a 100 μM 5-oxo-ETE solution and 20 μl of a 1 mM DHA solution were further added thereto, and the cells were cultured in a similar manner as described above.
The adhered cells were removed by a cell scraper, transferred to a 1.5 ml tube, and centrifuged at 800×g for 5 minutes at 4° C., to collect suspended and adhered cells. […] The cells were suspended in 100 μl of a FITC-Annexin solution, and after 15 minutes of reaction under light-shielded condition at room temperature, 300 μl of Binding buffer was added thereto, and the FITC-Annexin bound to the cells and propidium iodide (PI) uptake into the cells were measured, by means of flow cytometer [Becton Dickinson].

## CCCCC/C=C\C/C=C\C/C=C\C=C\C(=O)CCCC(=O)O [5-oxo-ETE, 5-oxo-6E,8Z,11Z,14Z-eicosatetraenoic acid]
[1]
  specific binding amount of [35S]GTPγS: increased in a concentration-dependent manner
[2]
  specific binding amount of [35S]GTPγS: increased
TG1019 protein; CHO cells with pcDNA3.1-TG1019 introduced, forskolin 1 μM, concentration-dependent
  cAMP production amount upon forskolin stimulation: inhibited
TG1019 protein; TG1019-expressing CHO cells pretreated with pertussis toxin
  cAMP production: not inhibited
TG1019 protein; control CHO cells with only vector introduced
  cAMP production amount upon forskolin stimulation: not changed
[3]
  effect on DHA induction of apoptosis: the induction of apoptosis was inhibited
